Measurements: US7592140B2, “2′, 5′-oligoadenylate phosphodiesterase” (priority 2002, dated 2009)

Assays:
[1] = test system: Vaccinia virus WR strain; format: cell-based
[2] = Solubility (physicochemical properties)
[3] = biological target: T1, recombinant human 2′-PDE (Homo sapiens, UniProt Q6L8Q7); test: Inhibition of recombinant human 2′-PDE activity (HPLC measurement of substrate reduction); format: biochemical; design: His6 (histidine hexamer) (C); made in house; nickel-chelate partial purification; details: substrate 0.75 mM adenylyl(2′-5′)adenosine, 37° C. for 60 min; read-out: 50% inhibition concentration (converted)
T1 sequence (Q6L8Q7 43-609): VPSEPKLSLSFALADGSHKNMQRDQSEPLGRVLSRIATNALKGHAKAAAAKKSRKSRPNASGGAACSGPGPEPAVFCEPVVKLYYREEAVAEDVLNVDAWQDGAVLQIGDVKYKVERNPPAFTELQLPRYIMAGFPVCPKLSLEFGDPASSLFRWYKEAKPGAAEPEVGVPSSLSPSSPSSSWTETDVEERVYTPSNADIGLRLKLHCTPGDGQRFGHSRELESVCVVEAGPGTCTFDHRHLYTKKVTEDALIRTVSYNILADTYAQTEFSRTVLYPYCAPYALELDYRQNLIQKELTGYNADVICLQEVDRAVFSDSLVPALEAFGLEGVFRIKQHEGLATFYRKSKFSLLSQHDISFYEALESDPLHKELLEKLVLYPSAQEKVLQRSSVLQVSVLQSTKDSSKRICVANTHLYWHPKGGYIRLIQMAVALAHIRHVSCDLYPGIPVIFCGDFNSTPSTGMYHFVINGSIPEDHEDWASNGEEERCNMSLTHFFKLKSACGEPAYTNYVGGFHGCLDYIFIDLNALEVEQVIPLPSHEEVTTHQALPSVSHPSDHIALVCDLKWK
Protocol: To 10 μl of the partially purified human 2′-PDE enzyme solution obtained in part 1) of Production Example 1, were added 80 μl of Buffer 7 containing 0.75 mM adenylyl(2′-5′)adenosine as the substrate and 10 μl of a solution of the A-74528 compound dissolved in dimethyl sulphoxide. Then the mixture was incubated at 37° C. for 60 min. and the enzyme was inactivated by addition of 200 μl of methanol. Ten μl of the sample obtained, after insoluble matter was removed using a 0.45 μm filter, was subjected to a reversed phase column (Inertsil ODS-2, 5 μm: diameter 4.6 mm×150 mm: manufactured by GL Science), equilibrated beforehand with Buffer 17 [50 mM ammonium acetate (pH 5.0), 5% (V/V) acetonitrile]. Liquid chromatography was performed at a flow rate of 1 ml/min. at 40° C., and the eluate was monitored at a wavelength of 260 nm. The elution was conducted as an isocratic elution. Using a standard material for the substrate, a conversion formula for obtaining the substrate amount based on the peak area was prepared. Based on the conversion formula, the reduction in the amount of the substrate was calculated from the substrate peak area when the diluted enzyme solution was added, which was regarded as the amount of the enzyme reaction product.

[4] = test system: 2′-PDE purified by Johnston et al.; details: value obtained by Johnston et al.; activity with A2′pA defined as 1; cited from earlier work
[5] = biological target: T1, recombinant human 2′-PDE; test: Substrate specificity of recombinant human 2′-PDE (HPLC); format: biochemical; design: His6 (histidine hexamer) (C); made in house; host or cells: COS-1 cells (monkey kidney), transient transfection with pEF6/KUBO#002/11-1; nickel-chelate partial purification; details: relative to adenylyl(2′-5′)adenosine defined as one; 150 μM substrate, 37° C. for 60 min
[6] = test system: PC-3 cells; test: Cell viability of PC-3 cells (Alamar Blue); format: cell-based, human; details: host PC-3 cells, cultured for 3 days
[7] = test system: 2′-PDE stable expression strains #6 and #10; test: Cell viability of 2′-PDE stable expression strains of PC-3 (Alamar Blue); format: cell-based, human; details: cultured for 3 days

With CC1c2c(O)cc(O)c3c2C2C(CC(O)=C4C(=O)c5c(O)cc(O)cc5C(C3=O)C42Cc2cc(O)cc(=O)o2)C1O (stereo not shown) [A-74528] as the molecule, how does the “effect on viral replication-suppression activity of interferon-α” value [1] read?
The value was “enhanced the viral replication-suppression activity of interferon-α”.

What about the viral replication-suppression activity [1] of the same molecule?
Its viral replication-suppression activity is “exhibited a viral replication-suppression activity in a concentration-dependent manner”.

And the solubility [2]?
Its solubility is “soluble in methanol and dimethyl sulphoxide”.

And the IC50 [3]?
Its IC50 is 60.7 µM.

Which results are given for Nc1ncnc2c1ncn2[C@@H]1O[C@H](COP(=O)(O)O[C@H]2[C@@H](O)[C@H](n3cnc4c(N)ncnc43)O[C@@H]2COP(=O)(O)O[C@H]2[C@@H](O)[C@H](n3cnc4c(N)ncnc43)O[C@@H]2CO)[C@@H](O)[C@H]1O [adenylyl(3′-5′)adenylyl(3′-5′)adenosine]?
relative cleavage efficiency [4]: 163; relative cleavage efficiency [5]: 1.1

Which “suppression of cell viability” value [6] does the source give for interferon-α here?
Its value is “suppressed the viability of PC-3 cells in a concentration-dependent manner”.

What about the “cell proliferation suppression activity compared with host PC-3 cells” value [7] of the same molecule?
The value was “attenuated”.

B1: interferon-γ (protein, UniProt P01579 24-161, looked up)
Interferon gamma: QDPYVKEAENLKKYFNAGHSDVADNGTLFLGILKNWKEESDRKIMQSQIVSFYFKLFKNFKDDQSIQKSVETIKEDMNVKFFNSNKKKRDDFEKLTNYSVTDLNVQRKAIHELIQVMAELSPAAKTGKRKRSQMLFRG
Which results are given for B1?
suppression of cell viability [6]: suppressed the viability of PC-3 cells in a concentration-dependent manner; cell proliferation suppression activity compared with host PC-3 cells [7]: attenuated
